Format in all cases: cell-based
In assay [1] the test system is RSK1 phosphorylation (cytoplasmic target of ERK1/2). Put plainly: Western blot, phosphorylated RSK1. Conditions: 10 μM, 2 hours; TPA; A2185 or HeLa cells. The procedure: (§1) CoIP assay was conducted using αERK1 (C-terminus) antibodies conjugated to protein A/G agarose beads. The precipitates were analyzed by Western blot using the indicated antibodies. Whole cell lysates (WCL) and αIgG-mouse (IgG) are shown as controls. […] Cell extracts were analyzed by Western blot with the indicated antibodies. […] The same extracts described in (B) were subjected to Western blot analysis using αpAkt Abs. The closest molecular weight marker (kDa) is shown on the right of all relevant panels.
(§2) Bars indicate average of 2 independent experiments done in triplicate ±SE. […] Empty squares represent individual data points of proliferation. Full squares indicate average proliferation of 2 independent experiments done in triplicate ±SE. […] Cell viability (as shown in FIGS. 8A and 8B) was measured by staining with methylene blue, and data presents proliferation normalized to DMSO control. […] Cell lysates were analyzed by Western blot with the corresponding antibodies. Closest molecular marker is indicated at the right of each panel.
(§3) Preparation of Cellular Extracts and Western Blotting:
(§4) Cells were grown to 70% confluence and serum starved (0.1% FCS, 16 hours). After treatments, cells were rinsed twice with ice-cold PBS−/− and scraped into RIPA buffer. […]
In general terms: A western blot detects proteins with antibodies after separation by electrophoresis.

For assay [2], the system named is c-Myc phosphorylation (nuclear target of ERK1/2). Kind of assay: Western blot, phosphorylated c-Myc. The conditions noted are these: 10 μM, 2 hours; TPA; both A2185 and HeLa cells. How it is done: as §1, §2, §3, §4
For assay [3], the system named is Elk1 phosphorylation (nuclear target of ERK1/2). Put plainly: Western blot, phosphorylated Elk1. Conditions: 10 μM, 2 hours; TPA; melanoma cell line A2185. The procedure: as §1, §2, §3, §4
The subject of assay [4] is A2185 cells. Kind of assay: Viability assay, dose response in A2185 cells. Conditions: 0.1-10 μM, 72 hours, 1% FCS. The procedure:
Four cancer cells, A2185, A2352, HeLa and MCF7 were grown in 1% FCS containing 10 μM of either EPE peptide, or Compounds Z56, Z1, Z2 or Z3, for 72 hours. Bars indicate average of 2 independent experiments done in triplicate ±SE. FIG. 8B presents dose response curves for Compounds Z56, Z1 and Z2. A2185 cells were grown in 1% FCS containing DMSO (0.1%) EPE or Scramble (Scr) peptide (10 μM), Compounds Z56, Z1, Z2, Z3 ([…]) or no treatment (FCS 1%) for 72 hours. Empty squares represent individual data points of proliferation. Full squares indicate average proliferation of 2 independent experiments done in triplicate ±SE. Bold horizontal line indicates arbitrary threshold (40%) for what is considered an active compound. Cell viability (as shown in FIGS. 8A and 8B) was measured by staining with methylene blue, and data presents proliferation normalized to DMSO control. […] Cell lysates were analyzed by Western blot with the corresponding antibodies. […]
Cells were seeded at low confluence into 24, 48 or 96-well plates in complete medium. […] Color was extracted by adding 0.1 M HCl (3 hours, 23° C.), and absorbance measured at 595 nm in an ELISA reader. For time course experiments, attached cells were fixed and measured at 0, 24, 48, 72 and 96 hours. […]

Assay [5] deals with A2185 and A2352 cells. Kind of assay: Viability assay (methylene blue), two BRAF melanoma cells. Conditions: 3 μM, 72 hours, 1% FCS. How it is done: FIGS. 10A, 10B and 10C present data from screening the 20 analogs of Compound Z2 (“C-compounds”) showing three particularly active anti-proliferative compounds. […] A2185 and A2352 cells were grown in 1% FCS containing DMSO (0.1%), EPE peptide, Compound Z56, Compound Z2 or C-compounds (10 μM), for 72 hours. Compounds were categorized according to activity: (1) active, below 40%; (2) moderate activity, below 80%; (3) not active, above 80%. […] A2185 and A2352 cells were grown in 1% FCS containing DMSO (0.1%), EPE peptide (10 μM), compounds Z56, Z2 or selected C-compounds (3 μM), for 72 hours. Empty squares/circles represent individual data points of proliferation. Full squares/circles indicate average proliferation of 2 independent experiments in triplicate±SE. Bold horizontal line defines arbitrary activity threshold of activity below 40%. FIG. 10C presents dose response curves of active C-compounds compounds. A2185 and A2352 were grown in 1% FCS media containing DMSO (0.1%), EPE peptide, Z56, Z2 (10 μM) or compounds C17, C22 and C23 (0.1-10 μM), for 72 hours. […] Cell viability was measured by staining with methylene blue. Data presented as percentage of DMSO control. Bar graphs represent average of 2 independent experiments done in triplicates ±SE.
FIG. 13 presents a graph showing the effect of analogs of Compound C17 (“D-compounds”) on cell viability at a concentration of 10 μM. A2185 and A2352 cells were grown in 1% FCS media containing DMSO (0.1%) EPE peptide (10 μM), Compounds Z56, Z2, C17 (10 μM) as controls, and D-Compounds (10 μM), for 72 hours. Viable cells were measured by staining with methylene blue. Bar graphs represent average of 2 independent experiments done in triplicates. Data presented as percentage of DMSO proliferation ±standard error.
FIG. 14 presents a graph showing the effect of analogs of Compound C17 (“D-compounds”) on cell viability at a concentration of 1 μM. A2185 and A2352 cells were grown in 1% FCS media containing DMSO (0.1%), EPE peptide (10 μM), Compounds Z56, Z2 and C17 (1 and 10 μM) as controls, and D-compounds (1 μM), for 72 hours. Viable cells were measured by staining with methylene blue. Bar graphs represent average of 2 independent experiments done in triplicates. Data presented as percentage of DMSO proliferation ±standard error.
Cells were seeded at low confluence into 24, 48 or 96-well plates in complete medium. After 24 hours, medium was replaced by 1% FCS (fetal calf serum) containing appropriate treatments. Fresh medium containing the same agents was replaced every day. After 72 or 96 hours of treatment, cells were fixed with 4% formaldehyde overnight at 23° C., washed once with 0.1 M borate buffer (pH 8.5) for 10 minutes, and stained with of 1% methylene blue in 0.1 M borate buffer (pH 8.5) for 30 minutes. Excess stain was washed out with distilled water. Color was extracted by adding 0.1 M HCl (3 hours, 23° C.), and absorbance measured at 595 nm in an ELISA reader. For time course experiments, attached cells were fixed and measured at 0, 24, 48, 72 and 96 hours. For dose-response experiments, cells were treated with indicated concentrations of reagent, fixed and stained after 72 hours as above.
The ability of the selected compounds to reduce cell viability of two BRAF melanoma cells (A2185 and A2352) was evaluated. Initially, all compounds were assayed at a relatively high concentration of 10 μM.

The structures appear in SMILES notation. Entries after “also recorded” stand apart in the source; their conditions may differ.

Take `O=C(OC1C=CS(=O)(=O)C1)c1ccccc1` (centres unmarked) [Compound Z2]: the “phosphorylation of the cytosolic target RSK1/2” value in assay [1] was “none of Compounds Z56, Z1, Z2 or Z3 affected”. For the same compound, the “levels of phosphorylated c-Myc” value in assay [2] is recorded as “decreased”. Besides, in assay [3], the “levels of phosphorylated Elk1” value was “decreased significantly”. Further, the “cell viability, dose response curve” value in assay [4] is listed as “dose dependent manner; also recorded: somewhat less potent than Compound Z56”. For the same compound, in assay [5], the “cell viability at lower concentration” value is “variable activity”.
